{
  "source": "patent US20210145830A1",
  "about": "“MATERIALS AND METHODS FOR TREATING CANCER” (Mayo Foundation for Medical Education and Research, priority 2018, published 2021)",
  "format_in_all_cases": "cell-based",
  "key": {"CART19 cells": {"tested_on": "CART19 cells", "assay": "Th2/Th1 T cell subtype analysis during CART19 expansion", "settings": "irradiated JeKo-1; TP0903 10-30 nM; day 3", "description": "(§1) FIG. 22A-C. In vitro experiment for the combination of CART19 and TP0903. A. CART19 were cocultured at different effector-to-target ratio (E:T) with luciferase-positive JeKo-1. At 48 hours, cell killing was assessed by luminescence. […] The means and SEM are shown (**, p<0.005, *, p<0.05, one-way ANOVA analysis). n.s., not statistically significant. B. CART19 degranulation assay and cytokine production in the presence of TP0903. CART19 were cocultured with JeKo-1 for 4 hours in the presence of TP0903 doses of TP0903 (10-65 nM). […] C. Th2/Th1 T cell subtype analysis during CART19 expansion in the presence pf TP0903. CART19 cells were stimulated with lethally irradiated (120 Gy) JeKo-1 cell lines in the presence of increasing doses of TP0903 (10-30 nM). At the day 3, Th1 and Th2 cells were defined using CD4, CCR6, CCR4 and CXCR3 expression. […] The means and SEM are shown (*, p<0.05, one-way ANOVA analysis). n.s., not statistically significant."}, "CART19": {"tested_on": "CART19", "assay": "T cell degranulation and intracellular cytokine assays", "description": "as §1\nBriefly, T cells were incubated with target cells at a 1:5 ratio. After staining for CAR expression, antibodies against CD107a, CD28, CD49d and monensin were added at the time of incubation. After 4 hours, cells were harvested and stained for CD3, CD4, and Live Dead staining (Invitrogen). Cells were fixed and permeabilized (FIX & PERM Cell Fixation & Cell Permeabilization Kit, Life Technologies) and intracellular cytokine staining was then performed as indicated in the specific experiments.\nT cells were incubated with target cells at a 1:5 ratio (experiments were done using JEKO cells as well as primary B cells). Antibodies against CD107a, CD28, CD49d and monensin were added at the time of incubation.\nAfter 4 hours, cells were harvested and stained for CD3, CD4, and Live Dead staining (Invitrogen). Cells were fixed and permeabilized (FIX & PERM Cell Fixation & Cell Permeabilization Kit, Life Technologies), and intracellular cytokine staining was then performed. […] The number of CD4 and CD8 cells positively stained for cluster of differentiation 107a (CD107a) or granulocyte-macrophage colony-stimulating factor (GM-CSF) in degranulation assays were shown in FIG. 5. The number of CD4 cells positively stained for interleukin-2 (IL-2) or interleukin-4 (IL-4) in degranulation assays were shown in FIG. 6."}, "luciferase-positive Jeko": {"tested_on": "luciferase-positive Jeko", "assay": "CART19 cytotoxicity in the presence of TP0903", "description": "FIG. 1 contains a graph showing CART19 cytotoxicity in the presence TP0903. CART19 or untransduced T cells (UTDs) were co-cultured at different effector-to-target ratios (E:T) with luciferase-positive Jeko with increasing doses of TP0903 (TP). At 24 hours, cell killing was assessed by luminescence.\nFIGS. 16A-B. A head-to-head comparison of two different combination therapy. UTDs (A) or CART19 (B) were co-cultured at different effector-to-target ratios (E:T) with luciferase-positive CD19^+ cell line in the presence of DMSO, 30 nM TP0903, or 100 nM ibrutinib. Cell killing was assessed by luminescence at 24 hours.\nas §1\nJEKO-Luc cells or primary B cells were used for cytotoxicity assay. In brief, targets were incubated at the indicated ratios with effector T cells for 4 or 16 hours. Killing was calculated either by bioluminescence imaging on a Xenogen IVIS-200 Spectrum camera (PerkinElmer, Hopkinton, Mass., USA) or by flow cytometry. For the latter, cells were harvested; Countbright beads and life/dead (Invitrogen) were added prior to analysis. Residual live target cells were CD19+L/D−.\nCART19 or UTDs were cocultured at different effector-to-target ratio (E:T) with luciferase-positive Jeko or with primary CLL cells, with increasing dose of TP0903 as indicated on the X axis. At 24 hours, cell killing was assessed by luminescence or by flow cytometry."}, "[1]": {"tested_on": "p-LCK, p38MAPK, GATA-3, T-bet in CART19 cells", "assay": "Western blot of signaling molecules in stimulated CART19 cells", "description": "FIG. 24A-B. A. Western blot analysis of p-LCK inhibition by TP0903 in CART19 cells. CART19 cells were incubated with lethally irradiated JeKo-1 in the presence of TP0903 at a 1 to 3 ratio for 24 hours. After the incubation, CART19 cells were purified with anti-CD19 micro beads. […] B. Comparison of gene expression between TP0903 treated CART19 cells and non-treated CART19 cells subpopulations using RNA-seq. CART19 cells from three biological replicates were thawed and stimulated with irradiated JeKo-1 (120 Gy) for 5 days. Each sample was treated with either 30 nM TP0903 (treated condition) or DMSO (untreated condition). Representative flow cytometric analysis of CART19 cells before RNA isolation (right). RNA-seq was performed on an Illumina […] by the Genomic Sequencing Core at Mayo Clinic."}, "[2]": {"settings": "T cells:targets 1:5, JEKO or primary B cells, 4 hours"}, "[3]": {"settings": "CART19 + irradiated JeKo-1, 24 hours, highest dose"}, "[4]": {"settings": "CART19 + irradiated JeKo-1, 24 hours, highest dose (65 nM)"}},
  "data": [
    {"smiles": "CN1CCN(Cc2ccc(Nc3ncc(Cl)c(Nc4ccccc4S(=O)(=O)N(C)C)n3)cc2)CC1", "note": "[TP0903]", "values": [
      {"measurement": "Th1/Th2 phenotype (CD4, CCR6, CCR4, CXCR3)", "setting": "CART19 cells", "value": "major shift toward Th1 phenotype"},
      {"measurement": "T cell specific degranulation or intracellular cytokines (CD107a, GM-CSF)", "setting": "CART19; CD4 and CD8 cells", "value": "did not inhibit"},
      {"measurement": "activation of CART19 cells (CD107a degranulation, intracytoplasmic IL-2, IFN-γ, GM-CSF)", "setting": "CART19; JeKo-1, 4 hours, TP0903 10-65 nM, presence or absence of TP0903", "value": "significant activation"},
      {"measurement": "secretion of IL-4", "setting": "CART19; JeKo-1, 4 hours, increasing dose of TP0903 (10-65 nM)", "value": "downregulated"},
      {"measurement": "CART cell functions", "setting": "CART19; [2]", "value": "did not impair"},
      {"measurement": "Th2 cytokines (intracellular staining)", "setting": "CART19; [2]", "value": "lowered"},
      {"measurement": "cell killing, head-to-head comparison of combinations", "setting": "luciferase-positive Jeko; 30 nM TP0903 + CART19 vs 100 nM ibrutinib + CART19, luciferase-positive CD19+ cell line, 24 hours", "value": "more synergistic killing"},
      {"measurement": "type of combination effect on cell killing", "setting": "luciferase-positive Jeko; CART19 + TP0903, from calculations", "value": "synergistic rather than an additive effect"},
      {"measurement": "cell killing assessed by luminescence", "setting": "luciferase-positive Jeko; CART19 + increasing doses of TP0903, different E:T ratios, luciferase-positive Jeko or primary CLL cells, 24 hours", "value": "robust killing at all E:T ratios"},
      {"measurement": "cytotoxic effect versus TP0903 dose", "setting": "luciferase-positive Jeko; CART19 with luciferase-positive JeKo-1, 48 hours, at a specific E:T ratio", "value": "increased cytotoxic effect was significantly correlated to increased TP0903 dose"},
      {"measurement": "antitumor activity against JeKo in vitro", "setting": "luciferase-positive Jeko; combination of CART19 cells and TP0903, low E:T ratios", "value": "synergistic antitumor activity"},
      {"measurement": "GATA-3", "setting": "[1]; [3]", "value": "inhibited"},
      {"measurement": "T-bet", "setting": "[1]; [3]", "value": "inhibited"},
      {"measurement": "phosphorylation of LCK", "setting": "[1]; [4]", "value": "modest inhibition"},
      {"measurement": "phosphorylation of p38MAPK", "setting": "[1]; [4]", "value": "modest inhibition"},
      {"measurement": "phosphorylation of LCK", "setting": "[1]; T cell lysates, CART19, Example 2 text", "value": "remarkably reduced"}
    ]}
  ]
}
